What follows are molecules tested against T1, CDK12/CyclinK (Homo sapiens, UniProt Q9NYV4) (assay: CDK12/CycK high ATP kinase assay (TR-FRET)). Conditions: 2 mM ATP (high ATP); median; read-out: CDK12/CyclinK, 2 mM ATP (high ATP), IC50 - [mol/l] (median).
T1 construct: His-CDK12 (aa Q696-S1082); made in house; host or cells: Hi-5 insect cells (baculovirus co-infection with CycK and yeast CAK1)
Format: biochemical
Source text: 2.2 CDK12/CycK high ATP Kinase Assay
In the context of the present invention, the term “IC50 CDK12 hATP” refers to the ICso values obtained according to the assay described in this section (2.2) herein below, i.e. the IC50 values for the inhibition of CDK12 at high ATP.
CDK12/CycK -inhibitory activity of compounds of the present invention at 2 millimol/L adenosine-tri-phosphate (ATP) was quantified employing the TR-FRET (TR-FRET=Time Resolved Fluorescence Energy Transfer) based CDK12/CycK activity inhibition assay as described in the following paragraphs.
A complex of human recombinant CDK12 and human recombinant CycK (both N-terminally His-tagged, expression and purification as described above) was used as enzyme. As substrate for the kinase reaction biotinylated peptide biotin-Ahx-KFELLPTPPLSPSRRSGL (C-terminus in amid form) was used which can be purchased e.g. form the company Biosyntan (Berlin-Buch, Germany).
For the assay 50 nanoL of a 100 fold concentrated solution of the test compound in DMSO was pipetted into either a black low volume 384 well microtiter plate or a black 1536 well microtiter plate (both Greiner Bio-One, Frickenhausen, Germany), 2 microL of a solution of CDK12/CycK in aqueous assay buffer [25 millimol/L HEPES pH 7.5, 20 millimol/L MgCl2, 5 millimol/L β-glycerophosphate, 2 millimol/L EGTA, 1.0 millimol/L dithiothreitol, 0.01% (v/v) Nonidet-P40 (Sigma), 0.01% (w/v) bovine serum albumin] were added and the mixture was incubated for 15 min at 22° C. to allow pre-binding of the test compounds to the enzyme before the start of the kinase reaction. Then the kinase reaction was started by the addition of 3 microL of a solution ATP (3.33 millimol/L=>final conc. in the 5 microL assay volume is 2 millimol/L) and substrate (1.67 micromol/L=>final conc. in the 5 microL assay volume is 1 micromol/L) in assay buffer and the resulting mixture was incubated for a reaction time of 60 min at 22° C. The concentration of CDK12/CycK was adjusted depending of the activity of the enzyme lot and was chosen appropriate to have the assay in the linear range, typical concentrations were about 0.75 nanomol/L. The reaction was stopped by the addition of 3 microL of a solution of TR-FRET detection reagents (125 nanomol/L streptavidine-XL665 [Cisbio Bioassays, Codolet, France] and 0.67 nanomol/L anti-Phospho-c-Myc (Ser 62) (E1J4K)-antibody from Cell Signalling [#13748] and 2 nanomol/L LANCE EU-W1024 labeled anti-rabbit IgG antibody [Perkin-Elmer, product no. 0083]) in an aqueous EDTA-solution (133 millimol/L EDTA, 0.27% (w/v) bovine serum albumin in 66.7 millimol/L HEPES pH 7.5).
The resulting mixture was incubated 1 h at 22° C. to allow the formation of complex between the phosphorylated biotinylated peptide and the detection reagents. Subsequently the amount of phosphorylated substrate was evaluated by measurement of the resonance energy transfer from the Eu-chelate to the streptavidine-XL. Therefore, the fluorescence emissions at 620 nm and 665 nm after excitation at 350 nm was measured in a TR-FRET reader, e.g. a Pherastar FS (BMG Labtechnologies, Offenburg, Germany) or a Viewlux (Perkin-Elmer). The ratio of the emissions at 665 nm and at […] was taken as the measure for the amount of phosphorylated substrate. The data were normalised (enzyme reaction without inhibitor=0% inhibition, all other assay components but no enzyme=100% inhibition).

T1 sequence (Q9NYV4 with tags, fused parts or gaps): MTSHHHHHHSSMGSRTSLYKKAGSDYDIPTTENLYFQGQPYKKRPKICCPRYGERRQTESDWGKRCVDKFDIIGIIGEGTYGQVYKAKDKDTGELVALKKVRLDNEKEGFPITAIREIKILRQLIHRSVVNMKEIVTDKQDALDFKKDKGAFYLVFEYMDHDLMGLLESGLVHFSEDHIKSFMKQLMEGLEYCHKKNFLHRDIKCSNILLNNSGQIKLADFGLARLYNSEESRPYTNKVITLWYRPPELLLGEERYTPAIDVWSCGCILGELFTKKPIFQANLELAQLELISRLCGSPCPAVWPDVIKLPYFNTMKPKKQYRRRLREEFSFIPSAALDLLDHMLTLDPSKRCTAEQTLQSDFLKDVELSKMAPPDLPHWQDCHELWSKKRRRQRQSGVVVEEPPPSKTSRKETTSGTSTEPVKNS
T1 sequence (O75909 with tags, fused parts or gaps partner limits assumed): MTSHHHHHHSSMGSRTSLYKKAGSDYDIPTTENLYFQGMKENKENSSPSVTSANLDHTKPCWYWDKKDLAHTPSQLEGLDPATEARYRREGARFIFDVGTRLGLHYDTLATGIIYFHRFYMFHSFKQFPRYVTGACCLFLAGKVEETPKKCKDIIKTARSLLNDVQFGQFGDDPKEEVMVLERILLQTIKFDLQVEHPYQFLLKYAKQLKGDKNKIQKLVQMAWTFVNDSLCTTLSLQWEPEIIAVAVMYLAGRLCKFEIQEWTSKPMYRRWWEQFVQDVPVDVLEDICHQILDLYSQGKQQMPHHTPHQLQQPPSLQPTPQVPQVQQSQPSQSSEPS

SMILES	IC50
CN1CCC(n2nc(NCc3nc4c(F)c(F)ccc4[nH]3)c3ncc(C4CC4)nc32)CC1 [Example 9, 6-cyclopropyl-N-[(4,5-difluoro-1H-benzimidazol-2-yl)methyl]-1-(1-methylpiperidin-4-yl)-1H-pyrazolo[3,4-b]pyrazin-3-amine]	> 20 µM
CC(CCN(C)C)n1nc(NCc2nc3ccccc3[nH]2)c2ncc(C3CC3)nc21 (racemic) [Example 62, (±)-N-[(1H-benzimidazol-2-yl)methyl]-6-cyclopropyl-1-[4-(dimethylamino)butan-2-yl]-1H-pyrazolo[3,4-b]pyrazin-3-amine]	> 20 µM
CN1CCC(n2nc(NCc3nc4c(C(F)(F)F)cccc4[nH]3)c3ncc(C4CC4)nc32)CC1 [Example 7, 6-cyclopropyl-1-(1-methylpiperidin-4-yl)-N-{[4-(trifluoromethyl)-1H-benzimidazol-2-yl]methyl}-1H-pyrazolo[3,4-b]pyrazin-3-amine]	> 20 µM
CN1CCC(n2nc(NCc3nc4cc(SC(F)(F)F)ccc4[nH]3)c3ncc(C4CC4)nc32)CC1 [Example 27, 6-cyclopropyl-1-(1-methylpiperidin-4-yl)-N-({5-[(trifluoromethyl)sulfanyl]-1H-benzimidazol-2-yl}methyl)-1H-pyrazolo[3,4-b]pyrazin-3-amine]	2.02 µM
c1ccc2[nH]c(CNc3nn(C4COC4)c4nc(C5CC5)cnc34)nc2c1 [Example 55, N-[(1H-benzimidazol-2-yl)methyl]-6-cyclopropyl-1-(oxetan-3-yl)-1H-pyrazolo[3,4-b]pyrazin-3-amine]	> 20 µM
CC(CCN(C)C)n1nc(NCc2nc3ccccc3[nH]2)c2ncc(C3CC3)nc21 (single isomer, unassigned) [Example 63, (+) or (−)-N-[(1H-benzimidazol-2-yl)methyl]-6-cyclopropyl-1-[4-(dimethylamino)butan-2-yl]-1H-pyrazolo[3,4-b]pyrazin-3-amine]	> 20 µM
OCCCn1nc(NCc2nc3ccccc3[nH]2)c2ncc(C3CC3)nc21 [Example 60, 3-(3-{[(1H-benzimidazol-2-yl)methyl]amino}-6-cyclopropyl-1H-pyrazolo[3,4-b]pyrazin-1-yl)propan-1-ol]	> 20 µM
CC(C)(C)OC(=O)N1CCC(n2nc(NCc3nc4ccccc4[nH]3)c3ncc(C4CC4)nc32)CC1 [Example 11, tert-butyl 4-(3-{[(1H-benzimidazol-2-yl)methyl]amino}-6-cyclopropyl-1H-pyrazolo[3,4-b]pyrazin-1-yl)piperidine-1-carboxylate]	> 20 µM
FC1(F)CCC(n2nc(NCc3nc4ccccc4[nH]3)c3ncc(C4CC4)nc32)CC1 [Example 36, N-[(1H-benzimidazol-2-yl)methyl]-6-cyclopropyl-1-(4,4-difluorocyclohexyl)-1H-pyrazolo[3,4-b]pyrazin-3-amine]	> 20 µM
Cc1ccc2[nH]c(CNc3nn(C4CCN(C)CC4)c4nc(C5CC5)cnc34)nc2c1 [Example 6, 6-cyclopropyl-N-[(5-methyl-1H-benzimidazol-2-yl)methyl]-1-(1-methylpiperidin-4-yl)-1H-pyrazolo[3,4-b]pyrazin-3-amine]	> 20 µM
O[C@H]1CC[C@@H](n2nc(NCc3nc4ccccc4[nH]3)c3ncc(C4CC4)nc32)CC1 [Example 51, cis-4-(3-{[(1H-benzimidazol-2-yl)methyl]amino}-6-cyclopropyl-1H-pyrazolo[3,4-b]pyrazin-1-yl)cyclohexan-1-ol]	> 20 µM
c1ccc2[nH]c(CNc3nn(C4CCOC4)c4nc(C5CC5)cnc34)nc2c1 (racemic) [Example 10, (±)-N-[(1H-benzimidazol-2-yl)methyl]-6-cyclopropyl-1-[oxolan-3-yl]-1H-pyrazolo[3,4-b]pyrazin-3-amine]	> 20 µM
CC1(C)CC(n2nc(NCc3nc4ccccc4[nH]3)c3ncc(C4CC4)nc32)CC(C)(C)O1 [Example 52, N-[(1H-benzimidazol-2-yl)methyl]-6-cyclopropyl-1-(2,2,6,6-tetramethyloxan-4-yl)-1H-pyrazolo[3,4-b]pyrazin-3-amine]	> 20 µM
CC1COCCC1n1nc(NCc2nc3ccccc3[nH]2)c2ncc(C3CC3)nc21 (racemic) [Example 42, (±)-cis/trans-N-[(1H-benzimidazol-2-yl)methyl]-6-cyclopropyl-1-(3-methyloxan-4-yl)-1H-pyrazolo[3,4-b]pyrazin-3-amine]	> 20 µM
COCCC(C)n1nc(NCc2nc3ccccc3[nH]2)c2ncc(C3CC3)nc21 (racemic) [Example 57, (±)-N-[(1H-benzimidazol-2-yl)methyl]-6-cyclopropyl-1-(4-methoxybutan-2-yl)-1H-pyrazolo[3,4-b]pyrazin-3-amine]	> 20 µM
c1ccc2[nH]c(CNc3nn(C4CCC4)c4nc(C5CC5)cnc34)nc2c1 [Example 49, N-[(1H-benzimidazol-2-yl)methyl]-1-cyclobutyl-6-cyclopropyl-1H-pyrazolo[3,4-b]pyrazin-3-amine]	> 20 µM
COCCCn1nc(NCc2nc3ccccc3[nH]2)c2ncc(C3CC3)nc21 [Example 61, N-[(1H-benzimidazol-2-yl)methyl]-6-cyclopropyl-1-(3-methoxypropyl)-1H-pyrazolo[3,4-b]pyrazin-3-amine]	> 20 µM

The next lines start with the values.

IC50	SMILES
> 20 µM	CN1CCC(n2nc(NCc3nc4ccccc4[nH]3)c3ncc(C4CC4)nc32)C1 (single isomer, unassigned) [Example 79, (−) or (+)-N-[(1H-benzimidazol-2-yl)methyl]-6-cyclopropyl-1-(1-methylpyrrolidin-3-yl)-1H-pyrazolo[3,4-b]pyrazin-3-amine]
> 20 µM	COCCn1nc(NCc2nc3ccccc3[nH]2)c2ncc(C3CC3)nc21 [Example 65, N-[(1H-benzimidazol-2-yl)methyl]-6-cyclopropyl-1-(2-methoxyethyl)-1H-pyrazolo[3,4-b]pyrazin-3-amine]
> 10 µM	OC1(Cn2nc(NCc3nc4ccccc4[nH]3)c3ncc(C4CC4)nc32)CCCC1 [Example 73, 1-[(3-{[(1H-benzimidazol-2-yl)methyl]amino}-6-cyclopropyl-1H-pyrazolo[3,4-b]pyrazin-1-yl)methyl]cyclopentan-1-ol]
> 10 µM	OC1(Cn2nc(NCc3nc4ccccc4[nH]3)c3ncc(C4CC4)nc32)CCC1 [Example 72, 1-[(3-{[(1H-benzimidazol-2-yl)methyl]amino}-6-cyclopropyl-1H-pyrazolo[3,4-b]pyrazin-1-yl)methyl]cyclobutan-1-ol]
> 20 µM	CN(C)CCn1nc(NCc2nc3ccccc3[nH]2)c2ncc(C3CC3)nc21 [Example 68, N-[(1H-benzimidazol-2-yl)methyl]-6-cyclopropyl-1-[2-(dimethylamino)ethyl]-1H-pyrazolo[3,4-b]pyrazin-3-amine]
> 10 µM	OCC1(Cn2nc(NCc3nc4ccccc4[nH]3)c3ncc(C4CC4)nc32)CCC1 [Example 74, {1-[(3-{[(1H-benzimidazol-2-yl)methyl]amino}-6-cyclopropyl-1H-pyrazolo[3,4-b]pyrazin-1-yl)methyl]cyclobutyl}methanol]
> 20 µM	CC(CCN(C)C)n1nc(NCc2nc3ccccc3[nH]2)c2ncc(C3CC3)nc21 (single isomer, unassigned) [Example 64, (−) or(+)-N-[(1H-benzimidazol-2-yl)methyl]-6-cyclopropyl-1-[4-(dimethylamino)butan-2-yl]-1H-pyrazolo[3,4-b]pyrazin-3-amine]
> 20 µM	OCCn1nc(NCc2nc3ccccc3[nH]2)c2ncc(C3CC3)nc21 [Example 66, 2-(3-{[(1H-benzimidazol-2-yl)methyl]amino}-6-cyclopropyl-1H-pyrazolo[3,4-b]pyrazin-1-yl)ethan-1-ol]

— US20230192700A1, “PYRAZOLOPYRAZINES ACTING ON CANCERS VIA INHIBITION OF CDK12” (Bayer Aktiengesellschaft, priority 2020, published 2023)
